Reference: patent US20230142739A1, “PROTEIN-PROTEIN INTERACTION STABILIZERS” (The Regents of the University of California, priority 2020, published 2023)

Experiments:
Type in all cases: binding
TBC1D237 peptide/14-3-3 = molecular target: T1, TBC1D237 peptide/14-3-3 (Homo sapiens, UniProt P61981); assay: Selectivity screening FA, TBC1D237 peptide; settings: 100 μM fragment
T1 construct: the full length 14-3-3γ was dialysis against 25 mM HEPES pH 7.5; made in house; host or cells: E. coli BL21(DE3), pPROEX HTb
Text: (§1) Selectivity screening of covalent fragments. Drugging the hub protein 14-3-3 raises the challenge of selectivity. We hypothesized that the high level of cooperative behavior for 14-3-3/Pin1_72/28 complex is a function of the unique functionality and topology of the interface, specifically the +1 and +3 amino acid of Pin1_72 with the covalent fragment. We further rationalized that this cooperativity would likely translate to high selectivity. To test this hypothesis, fragments 13, 27 and 28 were screened at a single fragment concentration (100 μM) against a panel of 13 peptides as diverse representatives of 14-3-3 client proteins, differing in size and hydrophobicity of the +1 amino acid (FIG. 22A).
(§2) Fluorescence Anisotropy (FA) Assays.

14-3-3/ERα complex = molecular target: T2, 14-3-3/ERα complex (Homo sapiens, UniProt P61981); assay: Selectivity screening FA, ERα peptide; settings: 100 μM fragment
T2 construct: the full length 14-3-3γ was dialysis against 25 mM HEPES pH 7.5; made in house; host or cells: E. coli BL21(DE3), pPROEX HTb
T2 sequence (P61981 1-247): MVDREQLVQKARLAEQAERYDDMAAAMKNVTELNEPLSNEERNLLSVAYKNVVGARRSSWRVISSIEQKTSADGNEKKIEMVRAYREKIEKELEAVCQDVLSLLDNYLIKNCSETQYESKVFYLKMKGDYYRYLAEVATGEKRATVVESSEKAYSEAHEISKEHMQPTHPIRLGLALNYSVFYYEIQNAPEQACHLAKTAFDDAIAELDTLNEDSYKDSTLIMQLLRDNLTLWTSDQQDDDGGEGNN
Text: as §1, §2

[1] = molecular target: T3, Raptor/14-3-3γ binary complex (Homo sapiens, UniProt P61981); assay: Selectivity screening FA, Raptor peptide; settings: 100 μM fragment
T3 construct: the full length 14-3-3γ was dialysis against 25 mM HEPES pH 7.5; made in house; host or cells: E. coli BL21(DE3), pPROEX HTb
Text: as §1
Following the importance of the tryptophan for complex stabilization of Pin1_72/14-3-3γ with the benzaldehydes, the influence of phenylalanine (AS160) and tyrosine (Raptor) were investigated (FIGS. 22A-22B). […] Unlike Pin1_72, the C-terminus of AS160 engages Phe+1 in intramolecular hydrophobic contacts with Pro+4 and Pro+5. The +1 phenylalanine likely cannot rearrange to allow fragment binding.
as §2

14-3-3/Pin1_72 complex = molecular target: T4, 14-3-3/Pin1_72 complex (Homo sapiens, UniProt P61981); assay: Cooperativity analysis, 14-3-3 titrations at varied constant fragment concentration
T4 construct: the full length 14-3-3γ was dialysis against 25 mM HEPES pH 7.5; made in house; host or cells: E. coli BL21(DE3), pPROEX HTb
Text: Cooperativity in ternary complex formation. In contrast to PPI inhibition, where affinity to one of the protein pockets is the driving force for drug development, design of molecular glues is driven by cooperative ternary complex formation. Both CC50 and SF values are concentration dependent values and might differ based on assay design. […] Cooperative complex formation is often accompanied by structural changes of the interface of a complex which translates to increased stability of the ternary com-plex. In order to assess cooperativity of the ternary complex, fragments 13, 23, 27 and 28 were selected for cooper-activity analysis. The α-factor of the fragments were determined using 14-3-3 titrations in the presence of varied, but constant concentration of fragment in a dose-dependent manner. […] Further, the interval of change in stabilization further describes the systems cooperative behaviour.
However, at higher concentration regimes significant assay interference was observed, probably due to compound aggregation. Fragments 23, 27 and 28 all reached saturation or approached saturation enabling accurate determination of α-factor. […] KD remains constant also at higher concentrations of FC-A, indicating non-specific effects.

B-Raf_729 peptide/14-3-3 = molecular target: T5, B-Raf_729 peptide/14-3-3 (Homo sapiens, UniProt P61981); assay: Selectivity screening FA, B-Raf_729 peptide; settings: 100 μM fragment
T5 construct: the full length 14-3-3γ was dialysis against 25 mM HEPES pH 7.5; made in house; host or cells: E. coli BL21(DE3), pPROEX HTb
Text: as §1, §2

CFTRpS753/14-3-3 = molecular target: T6, CFTRpS753/14-3-3 (Homo sapiens, UniProt P61981); assay: Selectivity screening FA, CFTRpS753 peptide; settings: 100 μM fragment
T6 construct: the full length 14-3-3γ was dialysis against 25 mM HEPES pH 7.5; made in house; host or cells: E. coli BL21(DE3), pPROEX HTb
T6 sequence (P13569 747-774 partner limits assumed, one chain of several): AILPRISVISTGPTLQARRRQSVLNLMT
Procedure: (§3) Selectivity screening of covalent fragments. Drugging the hub protein 14-3-3 raises the challenge of selectivity.
(§4) This was investigated by comparing the effect of 13, 27 and 28 on 14-3-3 interaction partners with a leucine (Abl1pT735), isoleucine (p65pS45), or valine (CFTRpS753) at the +1 position.
(§5) Fluorescence Anisotropy (FA) Assays. […] All FA assays were measured in FA buffer (10 mM HEPES pH 7.4, 150 mM NaCl, 0.1% Tween20, 1% BSA) in Corning 384 well plates (black, round bottom, low binding). Plates were incubated overnight prior to anisotropy measurements with the Tecan Infinite 500 plate reader (λexcitation=485 nm, λemission=535 nm).

C-Raf peptide/14-3-3 = molecular target: T7, C-Raf peptide/14-3-3 (Homo sapiens, UniProt P61981); assay: Selectivity screening FA, C-Raf peptide; settings: 100 μM fragment
T7 construct: the full length 14-3-3γ was dialysis against 25 mM HEPES pH 7.5; made in house; host or cells: E. coli BL21(DE3), pPROEX HTb
Text: as §1, §2

p65pS45/14-3-3 = molecular target: T8, p65pS45/14-3-3 (Homo sapiens, UniProt P61981); assay: Selectivity screening FA, p65pS45 peptide; settings: 100 μM fragment
T8 construct: the full length 14-3-3γ was dialysis against 25 mM HEPES pH 7.5; made in house; host or cells: E. coli BL21(DE3), pPROEX HTb
T8 sequence (as listed by the source partner, one chain of several): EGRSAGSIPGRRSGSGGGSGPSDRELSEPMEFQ
Procedure: as §3, §4, §5

ERRγ_179 peptide/14-3-3 = molecular target: T9, ERRγ_179 peptide/14-3-3 (Homo sapiens, UniProt P61981); assay: Selectivity screening FA, ERRγ_179 peptide; settings: 100 μM fragment
T9 construct: the full length 14-3-3γ was dialysis against 25 mM HEPES pH 7.5; made in house; host or cells: E. coli BL21(DE3), pPROEX HTb
Text: as §1, §2

Abl1pT735/14-3-3 = molecular target: T10, Abl1pT735/14-3-3 (Homo sapiens, UniProt P61981); assay: Selectivity screening FA, Abl1pT735 peptide; settings: 100 μM fragment
T10 construct: the full length 14-3-3γ was dialysis against 25 mM HEPES pH 7.5; made in house; host or cells: E. coli BL21(DE3), pPROEX HTb
Procedure: as §3, §4, §5

Mypt1_472 peptide/14-3-3 = molecular target: T11, Mypt1_472 peptide/14-3-3 (Homo sapiens, UniProt P61981); assay: Selectivity screening FA, Mypt1_472 peptide; settings: 100 μM fragment
T11 construct: the full length 14-3-3γ was dialysis against 25 mM HEPES pH 7.5; made in house; host or cells: E. coli BL21(DE3), pPROEX HTb
Text: as §1, §2

Pin1_72/14-3-3γ = molecular target: T12, Pin1_72/14-3-3γ (Homo sapiens, UniProt P61981+Q13526); assay: FA protein titrations in presence of 100 μM fragment, 13 representative 14-3-3/peptide interactions; settings: 14-3-3γ titrations
T12 construct: the full length 14-3-3γ was dialysis against 25 mM HEPES pH 7.5; made in house; host or cells: E. coli BL21(DE3), pPROEX HTb
Procedure: FIGS. 22A-22F. […] FIG. 22A: Radar plot of the SFs determined by FA protein titrations in presence of 100 μM fragment. […] Right: close-up. FIG. 22B: The SF values determined with 14-3-3γ titrations in presence of 100 μM 13, 27 or 28 in FA assays (n=2). FIG. 22C: Structural overlay of the known 14-3-3 binding epitopes used in this study. FIG. 22D: Overlay of the binding pose of 13, 27 and 28 (line representation) with the AS160 binding epitope (PDB: 7NIX). FIG. 22E: Overlay of crystal structures of 13 (2Fo-Fc map at 1 as mesh) binding to the p65_45 (violet sticks, carton)/14-3-3γ complex (PDB: 7NQP) and the CFTR (cyan sticks, cartoon)/14-3-3 complex (PDB: 5D3F, FC-A hidden for clarity). Hydrophobic contacts between 13 and Ile+1 of p65 and Val+1 of CFTR are indicated by transparent spheres.

14-3-3/p65 = molecular target: T13, 14-3-3/p65 (Homo sapiens, UniProt P61981); assay: Cooperativity analysis of the 14-3-3/p65/28 complex; settings: 1 mM compound; saturation not achieved
T13 construct: the full length 14-3-3γ was dialysis against 25 mM HEPES pH 7.5; made in house; host or cells: E. coli BL21(DE3), pPROEX HTb
T13 sequence (as listed by the source partner, one chain of several): as above
Procedure: Finally, we performed a cooperativity analysis of the 14-3-3/p65/28 complex to investigate how these structural observations translate to cooperativity. For the 14-3-3/p65/28 complex, saturation of the system was not achieved at concentration ≤1 mM with SF1 mM=37. […] The cooperative interactions within the 14-3-3/Pin1/28 complex are thus significant driving factors for the selective stabilization.

Compound	stabilization, TBC1D237 (TBC1D237 peptide/14-3-3)	stabilization, ERα (14-3-3/ERα complex)	stabilization of the Raptor/14-3-3γ binary complex [1]	cooperativity factor (α-factor) (14-3-3/Pin1_72 complex)	stabilization, B-Raf_729 (B-Raf_729 peptide/14-3-3)	SF, CFTR (CFTRpS753/14-3-3)	stabilizing activity, CFTRpS753 (CFTRpS753/14-3-3)	stabilization, C-Raf (C-Raf peptide/14-3-3)	stabilizing activity, p65pS45 (p65pS45/14-3-3)	stabilization, ERRγ_179 (ERRγ_179 peptide/14-3-3)	stabilizing activity, Abl1pT735 (Abl1pT735/14-3-3)	stabilization, Mypt1_472 (Mypt1_472 peptide/14-3-3)	concentration necessary to induce a 2-fold increase in PPI stabilization (14-3-3/Pin1_72 complex)	stabilization of the Pin1/14-3-3 complex (14-3-3/Pin1_72 complex)	selectivity of stabilization among 13 14-3-3/peptide interactions (Pin1_72/14-3-3γ)	SF1 mM (14-3-3/p65)
O=Cc1ccc(-n2ccnc2-c2cc(Br)ccc2F)cc1Br [compound 27, 2-bromo-4-(2-(5-bromo-2-fluorophenyl)-1H-imidazol-1-yl)benzaldehyde]	no significant stabilization	not responsive to fragment stabilization	9.5 fold	approximately 60	no significant stabilization	12.5	some stabilizing activity	abolishes any stabilizing effect	some stabilizing activity	no significant stabilization	some stabilizing activity	no significant stabilization				
O=Cc1ccc(-n2ccnc2-c2ccc(F)cc2F)cc1Br [compound 28, 2-bromo-4-(2-(2,4-difluorophenyl)-1H-imidazol-1-yl)benzaldehyde]	no significant stabilization	not responsive to fragment stabilization		270	no significant stabilization		no significant complex stabilization	abolishes any stabilizing effect	no significant complex stabilization	no significant stabilization	no significant complex stabilization	no significant stabilization	1 µM	270 fold	selective stabilization of the 14-3-3/Pin1_72 complex	37
